Results reported in US12358949B2, “Defensin fragments for use in therapy or prophylaxis” (priority 2019, dated 2025).
Where two headings read alike, the source gives them in different places. Where a SMILES comes first, the peptide text is derived from it. Bridges are numbered along the chain shown (N, C = ends).

Key:
A. baumannii 4-MRGN = assay type: cell-based
Method: (§1) The tested bacteria were incubated overnight in 1×TSB broth, centrifuged and washed with 10 mM sodium phosphate buffer containing 1% (w/v) TSB broth. 5×10^5 cfu/ml bacteria were mixed with different peptide concentrations in 10 mM sodium phosphate buffer with 1% (w/v) TSB (final volume 100 μl) and incubated for 2 hours at 37° C. Afterwards we added 100 μl 2×TSB broth and we measured the optical density at 600 nm (Spark 10M, Tecan, Austria). Bacterial growth was monitored for 12 hours, growing at 37° C. with shaking during the measurements each 30 minutes, except for Akkermansia muciniphila which were incubated at 37° C. in an anaerobic jar and growth was measured after 72 hours.

P. aeruginosa ATCC 27853 = assay type: cell-based
Method: as §1

commensal bacteria = experiment: Radial diffusion assay, HD-5 fragments; assay type: cell-based; conditions: 4 μg fragment, 2 μg full-length peptide; commensal bacteria (FIG. 3)
Method: In the RDA 2 μg of the full length and 4 μg of each fragment were used. An inhibition zone greater than 5 mm was determined as high activity, between 2.5 and 5 mm as low activity and 2.5 mm were the diameter of the punched well and therefore no activity.
(§2) Antimicrobial activity of all peptides was tested with a modified radial diffusion assay from Lehrer et al^12 Shortly described, log-phase bacteria grew (anaerobic bacteria with AnaeroGen, Oxoid in anaerobic jars) in liquid tryptic soy broth (TSB) (Becton Dickinson). After several wash steps in 10 mM sodium phosphate buffer pH 7.4, 4×10^6 cfu/ml was used per assay. To measure the antibacterial effect of the identified peptide fragments, the bacteria were incubated in 10 mM sodium phosphate (pH 7.4) containing 0.3 mg/ml TSB powder and 1% (w/v) low EEO-agarose (Applichem). Peptide fragments were then pipetted into punched wells and allowed to diffuse for 3 hours at 37° C. After that a nutrient rich gel with 6% TSB (w/v) and 1% agarose in 10 mM sodium phosphate buffer was poured on top of the first gel. After 24 hours the inhibition zones were measured. […] All experiments were carried out at least three times.

pathogenic bacteria = experiment: Radial diffusion assay, HD-5 fragments; assay type: cell-based; conditions: pathogenic Gram-positive and Gram-negative bacteria (FIG. 4)
Method: A heat map system with high activity (inhibition zone in the RDA>5 mm), low activity (2.5 to 5 mm) and no activity (2.5 mm) was used.
as §2

E. coli MC1000 = experiment: Transmission electron microscopy of peptide treated bacteria; assay type: cell-based; conditions: 200 μg/ml, 2 hours
Method: Transmission electron microcscopy experiments were performed as previously described^11. 6×10^8 cfu E. coli MC1000 was incubated with 200 μg/ml of each peptide for 2 hours. Bacteria were fixed in Karnovsky's fixative, embedded in agarose, coagulated, cut in small blocks and fixed again in Karnovsky's solution. After post-fixation and embedding in glycid ether blocks were cut using an ultra-microtome. Sections (30 nm) were mounted on copper grids and analyzed using a Zeiss LIBRA 120 transmissions electron microscope.

[1] = Incubation of reduced peptide with human duodenal fluid, LC/MS; assay type: in vitro ADME; conditions: after reduction with 2 mM TCEP; duodenal fluid 30 minutes at 37° C.
Method: 2.5 μg of HD-5 or HD-6 were incubated in 50 mM NH4HCO3 buffer (pH 8.0) (Fluka) with 2 mM tris(2-carboxyethyl) phosphine for 15 minutes at 37° C. Afterwards human duodenal fluid was added and incubated for additional 30 minutes at 37° C. At last, formic acid and acetonitrile was added in a final concentration of 0.5% and 10%, respectively, and analyzed the samples by mass spectrometry. Mass spectrometry was performed as a LC/MS system using an Agilent 1200 series HPLC with an Agilent Advanced Bio Peptide Map (2.1×150 mm, 2.7 μm) column with a flow of 0.4 ml/min at 55° C. column temperature and a 6540 UHD Q-TOF LC/MS system (Agilent) for mass analysis. The samples were separated by a gradient of acetonitrile in 0.1% formic acid. The gradient started at 2% acetonitrile for 4 minutes and then increased during 35 minutes to 45%. Mass spectrometric analyses were performed in single MS mode from 100 to 3400 m/z with positive ion polarity and were analyzed by Agilent MassHunter Quantitative Analysis B 06.00 software.

E. faecalis ATCC 19433 = experiment: Turbidity assay, MIC by optical density after 18 h; assay type: cell-based

| Molecule | antimicrobial activity in radial diffusion assay (commensal bacteria) | antimicrobial activity in radial diffusion assay (pathogenic bacteria) | phenotype of peptide treated bacteria (TEM) (E. coli MC1000) | susceptibility to proteolytic digestion [1] | also measured |
| --- | --- | --- | --- | --- | --- |
| CC[C@H](C)[C@@H]1NC(=O)[C@H](CCC(=O)O)NC(=O)[C@@H]2CSSC[C@@H]3NC(=O)[C@H](Cc4ccc(O)cc4)NC(=O)[C@@H](NC(=O)[C@@H](NC(=O)[C@H](C)N)[C@@H](C)O)CSSC[C@@H](C(=O)N[C@@H](CCCNC(=N)N)C(=O)O)NC(=O)[C@H](CSSC[C@H](NC(=O)[C@H](CCCNC(=N)N)NC(=O)CNC(=O)[C@H]([C@@H](C)O)NC(=O)[C@H](CCCNC(=N)N)NC3=O)C(=O)N[C@@H](C)C(=O)N[C@@H]([C@@H](C)O)C(=O)N[C@@H](CCCNC(=N)N)C(=O)N[C@@H](CCC(=O)O)C(=O)N[C@@H](CO)C(=O)N[C@@H](CC(C)C)C(=O)N[C@@H](CO)C(=O)NCC(=O)N[C@@H](C(C)C)C(=O)N2)NC(=O)[C@H](CC(C)C)NC(=O)[C@H](CCCNC(=N)N)NC(=O)[C@H](Cc2ccc(O)cc2)NC(=O)[C@H](CC(C)C)NC(=O)[C@H](CCCNC(=N)N)NC(=O)CNC(=O)[C@H](CO)NC1=O [HD-5, reference compound] (H-ATCYCRTGRCATRESLSGVCEISGRLYRLCCR-OH; disulfide 3-31, 5-20, 10-30 (inferred); N-terminus and C-terminus assumed) | broad antimicrobial activity | strong effect on the growth of every tested bacterium | detached inner membrane and small vesicular structures around the bacteria cell envelope | digested by intestinal proteases | MIC (A. baumannii 4-MRGN; 4-MRGN, 12 h): 6.25 µM; MIC (A. baumannii 4-MRGN; A. baumannii 4-MRGN, after 12 hours, listed as fl): 22.4 µg/mL; MIC (P. aeruginosa ATCC 27853; ATCC 27853, 12 h): 25 µM; MIC (P. aeruginosa ATCC 27853; P. aeruginosa ATCC 27853, after 12 hours, listed as fl): 89.7 µg/mL |
| C[C@H](N)C(=O)N[C@H](C(=O)N[C@@H](CS)C(=O)N[C@@H](Cc1ccc(O)cc1)C(=O)N[C@@H](CS)C(=O)N[C@@H](CCCNC(=N)N)C(=O)N[C@H](C(=O)NCC(=O)N[C@@H](CCCNC(=N)N)C(=O)N[C@@H](CS)C(=O)N[C@@H](C)C(=O)N[C@H](C(=O)N[C@@H](CCCNC(=N)N)C(=O)O)[C@@H](C)O)[C@@H](C)O)[C@@H](C)O [HD-51-13] (H-ATCYCRTGRCATR-OH; N-terminus and C-terminus assumed) | exhibited antimicrobial properties, albeit to a lesser extent than HD-51-9 |  | bigger aggregation inside the bacteria |  |  |
| CC[C@H](C)[C@H](NC(=O)[C@H](CCC(=O)O)NC(=O)[C@H](CS)NC(=O)[C@@H](NC(=O)CNC(=O)[C@H](CO)NC(=O)[C@H](CC(C)C)NC(=O)[C@H](CO)NC(=O)[C@H](CCC(=O)O)NC(=O)[C@H](CCCNC(=N)N)NC(=O)[C@@H](NC(=O)[C@H](C)NC(=O)[C@H](CS)NC(=O)[C@H](CCCNC(=N)N)NC(=O)CNC(=O)[C@@H](NC(=O)[C@H](CCCNC(=N)N)NC(=O)[C@H](CS)NC(=O)[C@H](Cc1ccc(O)cc1)NC(=O)[C@H](CS)NC(=O)[C@@H](NC(=O)[C@H](C)N)[C@@H](C)O)[C@@H](C)O)[C@@H](C)O)C(C)C)C(=O)N[C@@H](CO)C(=O)NCC(=O)N[C@@H](CCCNC(=N)N)C(=O)N[C@@H](CC(C)C)C(=O)N[C@@H](Cc1ccc(O)cc1)C(=O)N[C@@H](CCCNC(=N)N)C(=O)O [HD-51-28] (H-ATCYCRTGRCATRESLSGVCEISGRLYR-OH; N-terminus and C-terminus assumed) | exhibited antimicrobial properties, albeit to a lesser extent than HD-51-9 | only minimally active or more selective in terms of different strains | bigger aggregation inside the bacteria |  |  |
| AFTCHCRRSCYSTEYSYGTCTVMGINHRFCCL [HD-6] |  |  |  | protected against proteolytic digestion |  |
| CTRATYCRG [random amino acid structure of HD51-9] |  |  |  |  | antimicrobial activity, in words (E. faecalis ATCC 19433): complete dissolving of bactericidal effects |
